In US9908919B2, “Cyclic apelin derivatives for the treatment of heart failure” (priority 2013, dated 2018):
Where a SMILES comes first, the peptide text is derived from it.

Key:
in vitro = settings: rat, plasma
Experimental: (§1) The calcium flux protocol described above was followed, with the following changes. The peptides were also incubated with 5% rat plasma (Bioreclamation # [sequence]-M, Na Heparin-treated). Readings were taken at time points t0 and t24 hrs, after incubation in a 37° C. tissue culture incubator. Peptide plasma half-life in minutes was estimated by calculating the following: • 1) LN((EC50 at t0)/(EC50 at t24 hrs)), • 2) Calculate slope of value above and • 3) t112=0.693/(slope^2).

[1] = Plasma stability assay (LC-MS); assay type: in vitro ADME; settings: male, Sprague-Dawley; Table 3; heparinized rat plasma, 37° C., LC-MS percent remaining; read-out: Plasma stability t½
Experimental: Working solution: 1 mg/mL test article is prepared in Milli-Q water
Extraction solution: Methanol:Acetonitrile:Water (1:1:1) with 0.1% Formic Acid and 400 ng/mL Glyburide.
Plasma: Male Sprague-Dawley rat plasma (with sodium heparin), purchased from Bioreclamation LLC (Liverpool, N.Y.).
Test article was prepared in one of the following biological matrices: heparinized rat plasma, heparinized rat whole blood or lung homogenate. The plasma and whole blood sample was prepared at 5000 ng/mL by adding 5 uL of 1 mg/mL Working solution to 995 uL of rat plasma or whole blood. Lung homogenate samples were prepared by diluting lung homogenate to 1 mg/ml protein concentration with phosphate buffered saline (PBS), followed by addition of 5 uL Working solution to 995 uL diluted lung homogenate. The samples were incubated at 37° C. with gentle shaking (65˜75 rpm) in a water bath incubator. At times 0 min, 5 min, 15 min, 30 min, 60 min, 120 and 240 min, 25 uL aliquots of incubation samples were transferred to 96-well plate and immediately protein precipitated using 150 uL of Extraction solution. After completion of incubation experiment, the sample plate was centrifuged at 4000 rpm at 4° C. for 10 minutes. Afterwards, a pipetting device (Tecan Temo) was used to transfer the supernatants to another plate and add 50 uL of water to all samples. The plate was vortexed prior to LC-MS analysis. […]

[2] = rat
Experimental: as §1

| Compound | half-life (in vitro) | half-life at 5000 ng/mL [1] | Surrogate Activity based Plasma stability t½ [2] |
| --- | --- | --- | --- |
| CCCC[C@@H](NC(=O)[C@@H]1CCCN1C(=O)CNC(=O)[C@H](CCCCN)NC(=O)[C@H](Cc1c[nH]cn1)NC(=O)[C@@H]1CSSC[C@H](NC(=O)[C@H](CCCNC(=N)N)NC(=O)[C@@H]2CCC(=O)N2)C(=O)N[C@@H](CCCNC(=N)N)C(=O)N[C@@H](CC(C)C)C(=O)N1)C(=O)N[C@H](C)C(=O)N[C@H](Cc1ccccc1)C(=O)O [Example 2, pE-R-C*-R-L-C*-H-K-G-P-(D-Nle)-a-f-OH] (HELM PEPTIDE1{[Glp].R.C.R.L.C.H.K.G.P.[CCCC[C@@H](N[*:1])C(=O)[*:2]].[dA].[dF]}$PEPTIDE1,PEPTIDE1,3:R3-6:R3$$$V2.0) | 3.75 h | – | – |
| CCCC[C@H](NC(=O)[C@@H]1CCCN1C(=O)CNC(=O)[C@H](CCCCN)NC(=O)[C@H](Cc1c[nH]cn1)NC(=O)[C@@H]1CSSC[C@H](NC(=O)[C@H](CCCNC(=N)N)NC(=O)[C@@H]2CCC(=O)N2)C(=O)N[C@@H](CCCNC(=N)N)C(=O)N[C@@H](CC(C)C)C(=O)N1)C(=O)N1CCC[C@H]1C(=O)N[C@@H](Cc1ccccc1)C(=O)O [Example 1, pE-R-C*-R-L-C*-H-K-G-P-Nle-P-F-OH] (HELM PEPTIDE1{[Glp].R.C.R.L.C.H.K.G.P.[Nle].P.F}$PEPTIDE1,PEPTIDE1,3:R3-6:R3$$$V2.0) | 0.0667 h | – | – |
| CC(C)C[C@@H]1NC(=O)[C@H](CCCNC(=N)N)NC(=O)[C@H](NC(=O)[C@H](CCCNC(=N)N)NC(=O)[C@@H]2CCC(=O)N2)CSSC[C@@H](C(=O)N[C@@H](Cc2c[nH]cn2)C(=O)N[C@@H](CCCCN)C(=O)NCC(=O)N2CCC[C@H]2C(=O)N[C@H](Cc2ccccc2)C(=O)N[C@H](C)C(=O)N[C@H](Cc2ccccc2)C(=O)O)NC1=O [Example 4, pE-R-c*-R-L-C*-H-K-G-P-f-a-f-OH] (HELM PEPTIDE1{[Glp].R.[dC].R.L.C.H.K.G.P.[dF].[dA].[dF]}$PEPTIDE1,PEPTIDE1,3:R3-6:R3$$$V2.0) | 1.43 h | – | – |

Other lines, results leading:

| half-life (in vitro) | half-life at 5000 ng/mL [1] | Surrogate Activity based Plasma stability t½ [2] | Compound |
| --- | --- | --- | --- |
| 0.833 h | – | – | CC(C)C[C@H](NC(=O)[C@H](CCCNC(=N)N)NC(=O)[C@@H]1CCCN1C(=O)[C@H](CCCNC(=N)N)NC(=O)[C@@H]1CCC(=O)N1)C(=O)N[C@@H]1CSSC[C@@H](C(=O)N2CCC[C@H]2C(=O)N[C@H](Cc2ccccc2)C(=O)N[C@H](C)C(=O)N[C@H](Cc2ccccc2)C(=O)O)NC(=O)[C@H](CCCCN)NC(=O)[C@H](Cc2c[nH]cn2)NC1=O [Example 6, pE-R-P-R-L-c*-H-K-C*-P-f-a-f-OH] (HELM PEPTIDE1{[Glp].R.P.R.L.[dC].H.K.C.P.[dF].[dA].[dF]}$PEPTIDE1,PEPTIDE1,6:R3-9:R3$$$V2.0) |
| > 16.7 h | 2.42 h | >16.67 h | CCCC[C@@H]1NC(=O)[C@@H]2CCCN2C(=O)CNC(=O)[C@H](CCCCN)NC(=O)[C@H](Cc2c[nH]cn2)NC(=O)[C@@H](NC(=O)[C@H](CC(C)C)NC(=O)[C@H](CCCNC(=N)N)NC(=O)[C@@H]2CCCN2C(=O)[C@H](CCCNC(=N)N)NC(=O)[C@@H]2CCC(=O)N2)CSSC[C@@H](C(=O)O)NC(=O)[C@@H]2CCCN2C1=O [Example 8, pE-R-P-R-L-C*-H-K-G-P-Nle-P-C*-OH] (HELM PEPTIDE1{[Glp].R.P.R.L.C.H.K.G.P.[Nle].P.C}$PEPTIDE1,PEPTIDE1,6:R3-13:R3$$$V2.0) |
